Source: patent US4545991A, “Difficidin and derivative antibacterials” (Merck & Co., Inc., priority 1983, dated 1985)
Values after ≈ are worked out from the molar mass of the structure shown.

Columns and labels:
Format in all cases: cell-based
[1] = tested on: B. fragilis Clind^r Fox^r Tet^r; assay: MIC, in vitro agar dilution assay, anaerobic bacteria (Table III); settings: 10^6 CFU per spot
Ps. aeruginosa [2] = assay: MIC, in vitro agar dilution assay, aerobic bacteria (Table II); settings: Ps. aeruginosa, first unmarked strain; 10^6 CFU per spot
[3] = tested on: B. thetaiotaomicron Clind^r, NCCLS control strain; assay: MIC, in vitro agar dilution assay, anaerobic bacteria (Table III); settings: 10^6 CFU per spot
Actinomyces naeslundii = assay: as above; settings: 10^6 CFU per spot
[4] = tested on: B. distasonis Pen^r Fox^r; assay: as above; settings: 10^6 CFU per spot
B. ovatus Pen^r = assay: as above; settings: 10^6 CFU per spot
Eubacterium limosum = assay: as above; settings: 10^6 CFU per spot
E. coli TEM 2^+ DC 2 = assay: MIC, in vitro agar dilution assay, aerobic bacteria (Table II); settings: E. coli TEM 2^+ DC 2; 10^6 CFU per spot
Prot. morganii Sm^R = assay: as above; settings: Prot. morganii Sm^R; 10^6 CFU per spot
[5] = tested on: C. difficile Clind^r, Fox^r; assay: MIC, in vitro agar dilution assay, anaerobic bacteria (Table III); settings: 10^6 CFU per spot
[6] = tested on: Fusobacterium mortiferum Fox^r; assay: as above; settings: 10^6 CFU per spot
Ps. aeruginosa RPL 11^+ = assay: MIC, in vitro agar dilution assay, aerobic bacteria (Table II); settings: Ps. aeruginosa RPL 11^+; 10^6 CFU per spot
anaerobic bacteria = assay: antibacterial activity against anaerobic bacteria, summary; settings: wide spectrum of anaerobic bacteria
[7] = tested on: Bacteriodes fragilis Metr^r, Pen^r; assay: MIC, in vitro agar dilution assay, anaerobic bacteria (Table III); settings: 10^6 CFU per spot
E. coli DC 2 = assay: MIC, in vitro agar dilution assay, aerobic bacteria (Table II); settings: E. coli DC 2; 10^6 CFU per spot
Veillonella alcalescens = assay: MIC, in vitro agar dilution assay, anaerobic bacteria (Table III); settings: 10^6 CFU per spot
S. aureus = assay: MIC, in vitro agar dilution assay, aerobic bacteria (Table II); settings: 10^6 CFU per spot
Excerpt: (§1) Further evaluations of the antibacterial spectrum of difficidin and oxydifficidin were undertaken, especially as compared to the antibacterial spectrum of the valuable antibiotic cefoxitin, which is well known for its wide spectrum of antibacterial activity. An in vitro agar dilution assay was used, inoculum 10^6 CFU per spot. Table II below illustrates the results obtained for various aerobic bacteria, and Table III illustrates the results obtained for various anaerobic bacteria.

E. coli = assay: as above; settings: 10^6 CFU per spot
Excerpt: as §1

Strep. faecalis = assay: as above; settings: 10^6 CFU per spot
Excerpt: as §1

[8] = tested on: B. fragilis NCCLS control strain; assay: MIC, in vitro agar dilution assay, anaerobic bacteria (Table III); settings: 10^6 CFU per spot
Sal. typhimurium = assay: MIC, in vitro agar dilution assay, aerobic bacteria (Table II); settings: 10^6 CFU per spot
[9] = tested on: B. thetaiotaomicron Clind^r; assay: MIC, in vitro agar dilution assay, anaerobic bacteria (Table III); settings: 10^6 CFU per spot
Ps. aeruginosa [10] = assay: MIC, in vitro agar dilution assay, aerobic bacteria (Table II); settings: Ps. aeruginosa, second unmarked strain; 10^6 CFU per spot
Prot. mirabilis Gm^R = assay: as above; settings: 10^6 CFU per spot
S. aureus Gm^R Meth^R = assay: as above; settings: S. aureus Gm^R Meth^R; 10^6 CFU per spot
Ent. cloacae P99^+ = assay: as above; settings: Ent. cloacae P99^+; 10^6 CFU per spot
Prot. vulgaris = assay: as above; settings: 10^6 CFU per spot
C. difficile Fox^r = assay: MIC, in vitro agar dilution assay, anaerobic bacteria (Table III); settings: C. difficile Fox^r; 10^6 CFU per spot
Ent. cloacae P99^- = assay: MIC, in vitro agar dilution assay, aerobic bacteria (Table II); settings: Ent. cloacae P99^-; 10^6 CFU per spot
Propionibacterium acnes = assay: MIC, in vitro agar dilution assay, anaerobic bacteria (Table III); settings: 10^6 CFU per spot
B. fragilis Pen^r = assay: as above; settings: 10^6 CFU per spot
[11] = tested on: Klebsiella pneumoniae MB 4005; assay: MIC listed with mouse protection test (Table IV)
Ser. marcescens = assay: MIC, in vitro agar dilution assay, aerobic bacteria (Table II); settings: 10^6 CFU per spot
[12] = tested on: B. distasonis Pen^r Fox^r Clind^r; assay: MIC, in vitro agar dilution assay, anaerobic bacteria (Table III); settings: 10^6 CFU per spot
K. pneumoniae Kl^+ = assay: MIC, in vitro agar dilution assay, aerobic bacteria (Table II); settings: 10^6 CFU per spot
Escherichia coli = assay: MIC, standard in vitro assay (Table I); settings: 10^6 CFU; 4 strains tested
Excerpt: (§2) Using standard in vitro assay techniques, minimal inhibitory concentrations (MIC) have been determined for difficidin and oxydifficidin against a number of bacteria.

Enterobacter = assay: MIC, standard in vitro assay (Table I); settings: 10^6 CFU; 3 strains tested
Excerpt: as §2

Streptococcus faecalis = assay: MIC, standard in vitro assay (Table I); settings: 10^6 CFU; 1 strain tested
Excerpt: as §2

Salmonella typhimurium = assay: MIC, standard in vitro assay (Table I); settings: for MIC Range: 10^6 CFU, 1 strain tested
Excerpt: as §2

Serratia marcescens = assay: MIC, standard in vitro assay (Table I); settings: for MIC Range: 10^6 CFU, 1 strain tested
Excerpt: as §2

Klebsiella pneumoniae = assay: MIC, standard in vitro assay (Table I); settings: 10^6 CFU; 2 strains tested
Excerpt: as §2

Staphylococcus aureus = assay: MIC, standard in vitro assay (Table I); settings: for MIC Range: 10^6 CFU, 3 strains tested
Excerpt: as §2

Proteus = assay: MIC, standard in vitro assay (Table I); settings: for MIC Range: 10^6 CFU, 3 strains tested
Excerpt: as §2

Pseudomonas aeruginosa = assay: MIC, standard in vitro assay (Table I); settings: for MIC Range: 10^6 CFU, 3 strains tested
Excerpt: as §2

E. coli TEM 2^+ = assay: MIC, in vitro agar dilution assay, aerobic bacteria (Table II); settings: E. coli TEM 2^+; 10^6 CFU per spot

## C=CC=C(C)CCC1CC=CC=C(C)C(OP(=O)(O)O)CCCC=CC=CC=CC(O)C(C)C(=C)CC(=O)O1 (stereo not shown) [Oxydifficidin, oxydifficidin]
[1]
  MIC: 0.25 µg/mL (≈ 0.446 µM)
Ps. aeruginosa [2]
  MIC: 32.0 µg/mL (≈ 57.1 µM)
[3]
  MIC: 0.25 µg/mL (≈ 0.446 µM)
Actinomyces naeslundii
  MIC: 64 µg/mL (≈ 114 µM)
[4]
  MIC: > 128 µg/mL
B. ovatus Pen^r
  MIC: 0.25 µg/mL (≈ 0.446 µM)
Eubacterium limosum
  MIC: > 128 µg/mL
E. coli TEM 2^+ DC 2
  MIC: 8.0 µg/mL (≈ 14.3 µM)
Prot. morganii Sm^R
  MIC: 2.0 µg/mL (≈ 3.57 µM)
[5]
  MIC: 0.06 µg/mL (≈ 0.107 µM)
[6]
  MIC: 0.125 µg/mL (≈ 0.223 µM)
Ps. aeruginosa RPL 11^+
  MIC: 16.0 µg/mL (≈ 28.5 µM)
Anaerobic bacteria
  activity against anaerobic bacteria: active against a wide spectrum of anaerobic bacteria
[7]
  MIC: 0.25 µg/mL (≈ 0.446 µM)
E. coli DC 2
  MIC: 4.0 µg/mL (≈ 7.13 µM)
Veillonella alcalescens
  MIC: 0.06 µg/mL (≈ 0.107 µM)
S. aureus; first unmarked strain
  MIC: > 128.0 µg/mL
S. aureus; second unmarked strain
  MIC: 32.0 µg/mL (≈ 57.1 µM)
E. coli
  MIC: 4.0 µg/mL (≈ 7.13 µM)
Strep. faecalis
  MIC: > 128.0 µg/mL
[8]
  MIC: 0.25 µg/mL (≈ 0.446 µM)
Sal. typhimurium
  MIC: 32.0 µg/mL (≈ 57.1 µM)
[9]
  MIC: 0.25 µg/mL (≈ 0.446 µM)
Ps. aeruginosa [10]
  MIC: 32.0 µg/mL (≈ 57.1 µM)
Prot. mirabilis Gm^R
  MIC: 32.0 µg/mL (≈ 57.1 µM)
S. aureus Gm^R Meth^R
  MIC: 32.0 µg/mL (≈ 57.1 µM)
Ent. cloacae P99^+
  MIC: 32.0 µg/mL (≈ 57.1 µM)
Prot. vulgaris
  MIC: 8.0 µg/mL (≈ 14.3 µM)
C. difficile Fox^r
  MIC: 0.06 µg/mL (≈ 0.107 µM)
Ent. cloacae P99^-
  MIC: 64.0 µg/mL (≈ 114 µM)
Propionibacterium acnes
  MIC: 8 µg/mL (≈ 14.3 µM)
B. fragilis Pen^r
  MIC: 0.125 µg/mL (≈ 0.223 µM)
[11]
  MIC: 8 µg/mL (≈ 14.3 µM)
Ser. marcescens
  MIC: 16.0 µg/mL (≈ 28.5 µM)
[12]
  MIC: 0.06 µg/mL (≈ 0.107 µM)
K. pneumoniae Kl^+
  MIC: 8.0 µg/mL (≈ 14.3 µM)
Escherichia coli
  MIC Range: 4 to 16 µg/mL
Enterobacter
  MIC Range: 32 to 64 µg/mL
Streptococcus faecalis
  MIC Range: 128 µg/mL (≈ 228 µM)
Salmonella typhimurium
  MIC Range: 32 µg/mL (≈ 57.1 µM)
Serratia marcescens
  MIC Range: 16 µg/mL (≈ 28.5 µM)
Klebsiella pneumoniae
  MIC Range: 8 µg/mL (≈ 14.3 µM)
Staphylococcus aureus
  MIC Range: 32 to 128 µg/mL
Proteus
  MIC Range: 2 to 32 µg/mL
Pseudomonas aeruginosa
  MIC Range: 16 to 32 µg/mL
E. coli TEM 2^+
  MIC: 16.0 µg/mL (≈ 28.5 µM)

## C=CC=C(C)CCC1CC=CC=C(C)C(OP(=O)(O)O)CCCC=CC=CC=CCC(C)C(=C)CC(=O)O1 (stereo not shown) [Difficidin, difficidin]
[1]
  MIC: 0.25 µg/mL (≈ 0.459 µM)
Ps. aeruginosa [2]
  MIC: 8.0 µg/mL (≈ 14.7 µM)
[3]
  MIC: 0.06 µg/mL (≈ 0.11 µM)
Actinomyces naeslundii
  MIC: > 128 µg/mL
[4]
  MIC: > 128 µg/mL
B. ovatus Pen^r
  MIC: 0.125 µg/mL (≈ 0.229 µM)
Eubacterium limosum
  MIC: > 128 µg/mL
E. coli TEM 2^+ DC 2
  MIC: 8.0 µg/mL (≈ 14.7 µM)
Prot. morganii Sm^R
  MIC: 2.0 µg/mL (≈ 3.67 µM)
[5]
  MIC: 0.125 µg/mL (≈ 0.229 µM)
[6]
  MIC: 0.03 µg/mL (≈ 0.0551 µM)
Ps. aeruginosa RPL 11^+
  MIC: 8.0 µg/mL (≈ 14.7 µM)
Anaerobic bacteria
  activity against anaerobic bacteria: active against a wide spectrum of anaerobic bacteria
[7]
  MIC: 0.125 µg/mL (≈ 0.229 µM)
E. coli DC 2
  MIC: 8.0 µg/mL (≈ 14.7 µM)
Veillonella alcalescens
  MIC: 0.25 µg/mL (≈ 0.459 µM)
S. aureus; first unmarked strain
  MIC: 16.0 µg/mL (≈ 29.4 µM)
S. aureus; second unmarked strain
  MIC: 8.0 µg/mL (≈ 14.7 µM)
E. coli
  MIC: 8.0 µg/mL (≈ 14.7 µM)
Strep. faecalis
  MIC: > 128.0 µg/mL
[8]
  MIC: 0.06 µg/mL (≈ 0.11 µM)
Sal. typhimurium
  MIC: 8.0 µg/mL (≈ 14.7 µM)
[9]
  MIC: 0.25 µg/mL (≈ 0.459 µM)
Ps. aeruginosa [10]
  MIC: 8.0 µg/mL (≈ 14.7 µM)
Prot. mirabilis Gm^R
  MIC: 8.0 µg/mL (≈ 14.7 µM)
S. aureus Gm^R Meth^R
  MIC: 8.0 µg/mL (≈ 14.7 µM)
Ent. cloacae P99^+
  MIC: 16.0 µg/mL (≈ 29.4 µM)
Prot. vulgaris
  MIC: 0.5 µg/mL (≈ 0.918 µM)
C. difficile Fox^r
  MIC: 0.06 µg/mL (≈ 0.11 µM)
Ent. cloacae P99^-
  MIC: 8.0 µg/mL (≈ 14.7 µM)
Propionibacterium acnes
  MIC: 1 µg/mL (≈ 1.84 µM)
B. fragilis Pen^r
  MIC: 0.125 µg/mL (≈ 0.229 µM)
[11]
  MIC: 8 µg/mL (≈ 14.7 µM)
Ser. marcescens
  MIC: 4.0 µg/mL (≈ 7.34 µM)
[12]
  MIC: 0.06 µg/mL (≈ 0.11 µM)
K. pneumoniae Kl^+
  MIC: 8.0 µg/mL (≈ 14.7 µM)
Escherichia coli
  MIC Range: 8 µg/mL (≈ 14.7 µM)
Enterobacter
  MIC Range: 8 to 16 µg/mL
Streptococcus faecalis
  MIC Range: 128 µg/mL (≈ 235 µM)
Salmonella typhimurium
  MIC Range: 8 µg/mL (≈ 14.7 µM)
Salmonella typhimurium; Salmonella typhimurium, in most cases
  effectiveness of difficidin relative to oxydifficidin: four times more effective
Serratia marcescens
  MIC Range: 4 µg/mL (≈ 7.34 µM)
Serratia marcescens; Serratia marcescens, in most cases
  effectiveness of difficidin relative to oxydifficidin: four times more effective
Klebsiella pneumoniae
  MIC Range: 8 µg/mL (≈ 14.7 µM)
Staphylococcus aureus
  MIC Range: 8 to 16 µg/mL
Staphylococcus aureus; S. aureus, in most cases
  effectiveness of difficidin relative to oxydifficidin: four times more effective
Proteus
  MIC Range: 0.5 to 8 µg/mL
Proteus; Proteus, in most cases
  effectiveness of difficidin relative to oxydifficidin: four times more effective
Pseudomonas aeruginosa
  MIC Range: 8 µg/mL (≈ 14.7 µM)
Pseudomonas aeruginosa; Ps. aeruginosa, in most cases
  effectiveness of difficidin relative to oxydifficidin: four times more effective
E. coli TEM 2^+
  MIC: 8.0 µg/mL (≈ 14.7 µM)
